Values of other authors as cited in publication PMC3618595 (Pharmaceutical research, 2013).

How the values were obtained:
[1] = cited from earlier work
[2] = tested on: plasma proteins; settings: cited from earlier work
[3] = biological target: T1, hASBT (Homo sapiens, UniProt Q12908); settings: taurocholate; cited from earlier work
T1 sequence (Q12908 1-348): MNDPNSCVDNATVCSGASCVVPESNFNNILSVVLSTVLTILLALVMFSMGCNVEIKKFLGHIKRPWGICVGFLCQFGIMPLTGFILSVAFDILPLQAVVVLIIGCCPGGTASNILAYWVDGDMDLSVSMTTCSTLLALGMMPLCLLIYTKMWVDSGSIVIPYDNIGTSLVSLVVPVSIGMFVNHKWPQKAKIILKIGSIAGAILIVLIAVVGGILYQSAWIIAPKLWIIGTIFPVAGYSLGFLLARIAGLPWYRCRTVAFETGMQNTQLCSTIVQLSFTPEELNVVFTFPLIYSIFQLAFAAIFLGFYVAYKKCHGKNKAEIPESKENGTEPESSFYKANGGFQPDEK

| SMILES | Octanol/water partition coefficient [1] | Binding to plasma proteins [2] | Km [3] |
| --- | --- | --- | --- |
| C[C@H](CCC(=O)O)[C@H]1CC[C@H]2[C@@H]3[C@H](O)C[C@@H]4C[C@H](O)CC[C@]4(C)[C@H]3CC[C@]12C [chenodeoxycholic acid] | 23.3 | 96.2% | – |
| C[C@H](CCC(=O)NCCS(=O)(=O)O)[C@H]1CC[C@H]2[C@@H]3[C@H](O)C[C@@H]4C[C@H](O)CC[C@]4(C)[C@H]3C[C@H](O)[C@]12C [taurocholate] | – | – | 4.39 µM |
